# Source: ChEMBL document CHEMBL1129842, “ATP-sensitive potassium channel openers: Synthesis and antihypertensive activity of 4-bicyclyloxybenzopyrans” (1997)
# Tested on: Rattus norvegicus
# Experiment: Antihypertensive activity in spontaneously hypertensive rats (SHR''s) was evaluated after oral administration; ED50 mmHg
# Format: functional
# Conditions: not given
row,Structure (SMILES),ED50
1,CN1N=C(OC2c3cc(C#N)ccc3OC(C)(C)C2O)C2CC2C1=O (racemic; form 1),>1 mg/kg
2,CN1N=C(OC2c3cc(C#N)ccc3OC(C)(C)C2O)C2CC2C1=O (racemic; form 2),0.047 mg/kg

# Same assay, conditions: Rattus norvegicus, po; read-out: ED50
row,Structure (SMILES),ED50
1,CN1N=C(OC2c3ccc([N+](=O)[O-])cc3OC(C)(C)C2O)C2CC2C1=O (racemic),> 0.3 mg/kg
2,CN1N=C(O[C@@H]2c3cc(C#N)ccc3OC(C)(C)[C@@]2(C)O)[C@@H]2C[C@@H]2C1=O,0.0023 mg/kg
3,CN1N=C(N[C@@H]2c3cc(C#N)ccc3OC(C)(C)[C@H]2O)[C@@H]2C[C@@H]2C1=O,0.0065 mg/kg
4,"CN1N=C(O[C@@H]2c3cc(C#N)ccc3OC(C)(C)[C@H]2O)C2CC2C1=O (single isomer, unassigned; (-))",0.029 mg/kg
5,Cn1nc(O[C@@H]2c3cc(C#N)ccc3OC(C)(C)[C@H]2O)ccc1=O,0.0064 mg/kg
6,Cn1nc(OC2c3cc(C#N)ccc3OC(C)(C)C2O)ccc1=O (racemic),0.023 mg/kg
7,CN1N=C(O[C@@H]2c3cc(C(F)(F)C(F)(F)F)ccc3OC(C)(C)[C@H]2O)[C@@H]2C[C@@H]2C1=O (racemic),0.047 mg/kg
8,Cn1nc(OC2c3cc(C#N)ccc3OC(C)(C)C2O)c2ccccc2c1=O (racemic),> 10 mg/kg
9,CN1N=C(OC2c3cc(C#N)ccc3OC(C)(C)C2(C)O)C2CC2C1=O (racemic),0.0042 mg/kg
10,CC1(C)Oc2ccc(C#N)cc2C(N2CCCC2=O)C1O (racemic) [CROMAKALIM],0.31 mg/kg
11,CC1(C)Oc2ccc(C#N)cc2[C@@H](N2CCCC2=O)[C@@H]1O [LEVCROMAKALIM],0.14 mg/kg
12,Cn1nc(OC2c3cc(C#N)ccc3OC(C)(C)C2O)c2c(c1=O)CCC2 (racemic),0.86 mg/kg
13,CN1N=C(OC2c3cc([N+](=O)[O-])ccc3OC(C)(C)C2O)C2CC2C1=O (racemic),0.049 mg/kg
14,CN1N=C(O[C@@H]2c3cc(C#N)ccc3OC(C)(C)[C@H]2O)C2C(C1=O)C2(C)C (mixture of isomers),> 0.1 mg/kg

# Tested on: Rattus norvegicus
# Experiment: Potassium channel opening activity is expressed as area under curve (AUC), determined in spontaneously hypertensive rats (SHR's) after oral administration
# Format: functional
# Conditions: not given
row,Structure (SMILES),ECAUC0.2
1,CN1N=C(O[C@@H]2c3cc(C#N)ccc3OC(C)(C)[C@@]2(C)O)[C@@H]2C[C@@H]2C1=O,0.021 µM
2,"CN1N=C(O[C@@H]2c3cc(C#N)ccc3OC(C)(C)[C@H]2O)C2CC2C1=O (single isomer, unassigned; (-))",0.18 µM
3,Cn1nc(O[C@@H]2c3cc(C#N)ccc3OC(C)(C)[C@H]2O)ccc1=O,0.16 µM
4,Cn1nc(OC2c3cc(C#N)ccc3OC(C)(C)C2O)ccc1=O (racemic),0.25 µM
5,CC1(C)Oc2ccc(C#N)cc2C(N2CCCC2=O)C1O (racemic) [CROMAKALIM],2.8 µM
6,CC1(C)Oc2ccc(C#N)cc2[C@@H](N2CCCC2=O)[C@@H]1O [LEVCROMAKALIM],1.6 µM
7,CN1N=C(OC2c3cc(C#N)ccc3OC(C)(C)C2O)C2CC2C1=O (racemic; form 2),0.39 µM
